Assays:
[1] = system: Abeta 1-37, Abeta 1-38, Abeta 1-40 and Abeta 1-42 in cerebrospinal fluid (CSF); experiment: Pharmacology in the beagle dog, beta-amyloid profile in CSF (Test Example 18-2); type: in vivo; settings: single dose 0.63 mg/kg
Procedure: Test compounds were tested to evaluate the effect on the beta-amyloid profile in cerebrospinal fluid (CSF) of dogs after a single dose, in combination with pharmacokinetic (PK) follow up and limited safety evaluation.
For each of compound II-6 or II-10, four beagle dogs (2 males, 2 females) were dosed with vehicle (1 mL/kg of an aqueous solution of 20% cyclodextrin) and 12 beagle dogs (2 males and 2 females per dosage group) were dosed with test compounds as follows:
In the case of compounds II-2, II-3 and II-18, two beagle dogs (1 male, 1 female) were dosed with vehicle (1 mL/kg of an aqueous solution of 20% cyclodextrin) and 4 beagle dogs (2 males and 2 females) were dosed with test compound (II-2, II-3, or II-18) at the doses indicated in the following Table in an aqueous 20% cyclodextrin solution with a concentration in mg/mL identical to the dose given in mg/kg) on an empty stomach.
CSF was taken in conscious animals directly from the lateral ventricle via a cannula which was screwed in the skull and covered with subcutaneous tissue and skin, before and at 4, 8, 25 and 49 hours after dosing. Eight hours after dosing the animals got access to their regular meal for 30 minutes. Blood was taken for PK follow up (0.5, 1, 2, 4, 8, 25 and 49 hours) and serum samples for biochemistry were taken before and at 8 and 25 h after dosing. The CSF samples were used for measurement of Abeta 1-37, Abeta 1-38, Abeta 1-40 and Abeta 1-42.

BACE1 [2] = target: T1, BACE1 (Homo sapiens, UniProt P56817); experiment: BACE1 cellular αLisa assay in SKNBE2 cells, Abeta 1-42 (Test Example 2-3); type: cell-based; design: endogenous in cells; host or cells: SKNBE2 human neuroblastoma cells expressing hAPP695; settings: SKNBE2 cells expressing hAPP695, 18 hours incubation, read-out: Cellular αLisa assay in SKNBE2 cells Abeta 42 pIC50 (converted)
Procedure: In two αLisa assays the levels of Abeta 1-42 or Abeta total produced and secreted into the medium of human neuroblastoma SKNBE2 cells are quantified. The assays are based on the human neuroblastoma SKNBE2 expressing the wild type Amyloid Precursor Protein (hAPP695). The compounds are diluted and added to these cells, incubated for 18 hours and then measurements of Abeta 1-42 or Abeta total are taken. Abeta 1-42 or Abeta total are measured by sandwich αLisa using biotinylated antibody AbN/25 attached to streptavidin coated donor beads and antibody cAb42/26 or Ab 4G8 conjugated acceptor beads for the detection of Abeta 1-42 or Abeta total respectively. In the presence of Abeta 1-42 or Abeta total, the beads come into close proximity. The excitation of the donor beads provokes the release of singlet oxygen molecules that trigger a cascade of energy transfer in the acceptor beads, resulting in light emission. Light emission is measured after 1 h incubation (excitation at […] and emission at 615 nm).
(§1) Data are analysed using Screener (Registered trademark) (Genedata, Switzerland). Data were normalized and % inhibition=100−[(sample−LC)/(HC−LC))*100], was plotted versus the log concentration of the test compound. Curves were analysed using non-linear regression analysis and IC50 values (inhibitory concentration causing 50% inhibition of activity) were derived from individual curves.
LC=Median of the low control values • =Low control: Reaction without enzyme
HC=Median of the High control values • =High Control: Reaction with enzyme
(§2) % Inhibition=100−[(sample−LC)/(HC−LC)*100]

BACE1 [3] = target: T1, BACE1; experiment: BACE1 biochemical FRET based assay - Method 1 (Test Example 2-2); settings: 0.04 μg/mL BACE1, 450 minutes, Citrate buffer pH 5.0, read-out: BACE1 Biochemical FRET based assay - Method 1 PIC50 (converted)
Source text: (§3) This assay is a Fluorescence Resonance Energy Transfer Assay (FRET) based assay. The substrate for this assay is an APP derived 13 amino acids peptide that contains the ‘Swedish’ Lys-Met/Asn-Leu mutation of the amyloid precursor protein (APP) beta-site secretase cleavage site. This substrate also contains two fluorophores: (7-methoxycoumarin-4-yl) acetic acid (Mca) is a fluorescent donor with excitation wavelength at 320 nm and emission at 405 nm and 2,4-dinitrophenol (Dnp) is a proprietary quencher acceptor. […] Upon cleavage by BACE1, the fluorophore Mca is separated from the quenching group Dnp, restoring the full fluorescence yield of the donor. The increase in fluorescence is linearly related to the rate of proteolysis.
Briefly in a 384-well format recombinant BACE1 protein in a final concentration of 0.04 μg/mL is incubated for 450 minutes at room temperature with […] substrate in incubation buffer (final concentrations: 33.3 mM Citrate buffer pH 5.0, 0.033% PEG, 3% DMSO) in the absence or presence of compound. Next the amount of proteolysis is directly measured by fluorescence measurement at T=0′-120′ and T=450′ (excitation at 320 nm and emission at 405 nm). Results are expressed in RFU (Relative Fluorescence Units), as difference between T450 and Tx (Tx is chosen depending on the reaction speed between 0 and 120 minutes.).
as §1
(§4) LC=Median of the low control values
(§5) =Low control: Reaction without enzyme
(§6) HC=Median of the High control values
(§7) =High Control: Reaction with enzyme
as §2

BACE2 = target: T2, BACE2 (Homo sapiens, UniProt Q9Y5Z0); experiment: BACE2 biochemical FRET based assay (Test Example 2-4); settings: recombinant BACE2 0.4 μg/mL, 10 μM substrate, 450 minutes, pH 5.0; read-out: BACE2 Biochemical FRET based assay pIC50 (converted)
T2 sequence (Q9Y5Z0 63-518): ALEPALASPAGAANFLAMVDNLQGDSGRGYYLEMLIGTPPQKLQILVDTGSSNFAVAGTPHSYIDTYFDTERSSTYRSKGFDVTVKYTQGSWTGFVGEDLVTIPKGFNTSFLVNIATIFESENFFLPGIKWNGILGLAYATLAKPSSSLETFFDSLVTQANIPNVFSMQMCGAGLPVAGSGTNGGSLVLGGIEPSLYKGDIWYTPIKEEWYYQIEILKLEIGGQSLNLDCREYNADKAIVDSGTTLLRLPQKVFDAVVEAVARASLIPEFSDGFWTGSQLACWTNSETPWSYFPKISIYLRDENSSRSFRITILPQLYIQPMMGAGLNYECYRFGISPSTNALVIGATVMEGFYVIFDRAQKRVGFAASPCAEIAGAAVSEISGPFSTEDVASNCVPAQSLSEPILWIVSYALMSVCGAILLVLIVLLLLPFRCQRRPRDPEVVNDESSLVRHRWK
Source text: as §3, with “assay” for “assay is an APP derived 13 amino acids peptide that”, “beta-secretase” for “beta-site secretase”, “the beta-secretase,” for “BACE1,”
Briefly in a 384-well format recombinant BACE2 protein in a final concentration of 0.4 μg/mL is incubated for 450 minutes at room temperature with 10 μM substrate in incubation buffer (final concentrations: 33.3 mM Citrate buffer pH 5.0, 0.033% PEG, 2% DMSO) in the absence or presence of compound. Next the amount of proteolysis is directly measured by fluorescence measurement at T=0 and T=450 (excitation at 320 nm and emission at 405 nm). Results are expressed in RFU (Relative Fluorescence Units), as difference between T450 and TO.
as §1, §4, §5, §6, §7, §2

T1 sequence (P56817 46-501): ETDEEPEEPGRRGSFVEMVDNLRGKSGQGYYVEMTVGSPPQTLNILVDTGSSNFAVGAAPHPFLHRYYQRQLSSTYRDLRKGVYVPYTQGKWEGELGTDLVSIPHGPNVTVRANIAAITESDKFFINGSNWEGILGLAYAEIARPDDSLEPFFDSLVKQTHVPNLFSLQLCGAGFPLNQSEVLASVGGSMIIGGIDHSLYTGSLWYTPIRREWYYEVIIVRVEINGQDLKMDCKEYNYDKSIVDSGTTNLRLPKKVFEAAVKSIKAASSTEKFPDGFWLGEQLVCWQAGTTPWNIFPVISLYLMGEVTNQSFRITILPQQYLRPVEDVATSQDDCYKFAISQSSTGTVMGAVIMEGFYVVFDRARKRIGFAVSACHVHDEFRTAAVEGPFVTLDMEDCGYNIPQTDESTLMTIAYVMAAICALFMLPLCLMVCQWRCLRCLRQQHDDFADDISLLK

melting point: 195 °C
IC50 (BACE1 [2]): 4.47 nM
IC50 (BACE1 [3]): 3.24 nM
IC50 (BACE2): 240 nM
Compound: CC1(S(C)(=O)=O)CCC(CF)(c2cc(NC(=O)c3cc4c(cn3)OC(F)(F)O4)cc(F)c2F)N=C1N (stereo not drawn) [II-18]
% Decrease in Abeta 1-42 at 8 h post dosing compared to own baseline ([1]; 8 h): 53%
% Decrease in Abeta 1-42 at 24 h^(a) or 25 h^(b) post dosing compared to own baseline ([1]; 24 h or 25 h): 27%

Source: patent US20210261561A1, “BICYCLIC HETEROCYCLE DERIVATIVES HAVING SELECTIVE BACE1 INHIBITORY ACTIVITY” (SHIONOGI & CO., LTD., priority 2018, published 2021)
